# Test results from patent publication US11634447B2 (priority 2012, dated 2023).
# System: bacterial strain LF82 binding to the glycoprotein BSA-(Mannose)3
# Assay: Bacterial Binding Assay (BBA)
# Assay type: cell-based, Escherichia coli
# Details: read-out: Bacterial Binding Assay IC50, LF82/Luciferase strain binding to BSA-(Man)3 coated plates, luminescence
# From the text: The purpose of the Bacterial Binding Assay (BBA) is to determine the inhibition activity of
# selective FimH antagonists on the bacterial strain LF82 binding to the glycoprotein BSA-(Mannose)3.
# Below is a list of the Materials used to run the BBA are described below. • 1. LB broth: Supplier: Gibco, #10855 • 2. D-PBS: Supplier: Wisent, #311-425-CL • 3. LB agar plates • 4. 96-well black plate (high binding): Supplier: Costar, #3925 • 5. TopSeal™-A adhesive sealing films; Supplier PerkinElmer, #6005185 • 6. Carbonate-bicarbonate buffer pH 9.6 tablets, Supplier: Medicago, #09-8922-24 • 7. Water, Supplier: Gibco, #15230-162 • 8. Bovine serum albumin (BSA): Supplier: Sigma, #A-7888 • 9. (Man)3-BSA (α1-3, α1-6 Mannotriose-BSA, 1 mg), V-Labs, #NGP1336, lot #HGDX37-169-1 • 10. Tween 20: Supplier: Sigma, #P9416 • 11. Bright-Glo Luciferase Assay System: Supplier: Promega, #E2610 • 12. LF82/Luciferase strain: Invasive ability of an Escherichia coli strain isolated from the ileal mucosa of a patient with Crohn ? disease. Boudeau J, Glasser A L, Masseret E, Joly B, Darfeuille-Michaud A, Infect Immun. 1999, 67(9), 4499-509
# Solutions and buffers used to run the BBA are described below. • 1. 0.04M carbonate-bicarbonate buffer (coating buffer) • 2. 40 μg/mL BSA-(Man)3: Dissolve 1 mg of (Man)3-BSA in 25 mL of water. • 3. 4000 μg/mL BSA • 4. 40 μg/mL BSA • 5. 1 μg/mL BSA-(Man)3: 150 μL of 40 μg/mL BSA-(Man)3+5.85 mL of 40 μg/mL BSA • 6. 0.5 μg/mL BSA-(Man)3 in 0.02M carbonate-bicarbonate buffer. • 7. 20 μg/mL BSA in 0.02M carbonate-bicarbonate buffer • 8. Blocking buffer (2% BSA/DPBS): 1 g of BSA in 50 mL D-PBS • 9. 2× binding buffer (0.2% BSA/D-PBS): 5 mL of blocking buffer+45 mL D-PBS. • 10. Washing buffer (D-PBS/0.01% Tween 20): 10 μL of Tween 20 in 100 mL D-PBS. • 11. 1× Bright-Glo Luciferase substrate: Dilute 1:1 the Bright-Glo Luciferase Assay System with D-PBS The experimental protocol to run the BBA is described below.
# Overnight culture of LF82/Luciferase strain: Into two Falcon 50 mL tubes, add 20 mL of LB+20 μL of 50 mg/mL Kanamycin and inoculate with a loop from glycerol stock of the LF82/Luciferase strain. Incubate overnight at 37° C. with no shaking.
# Glycoprotein coating of 96-well plates: Add 100 μL/well of 0.5-2 μg/mL BSA-(Man)3. 20 μg/mL BSA is used as the control background. Seal plate using an adhesive sealing film and incubate overnight at room temperature. Wash the 96-well plate three times with 150 μL/well of D-PBS, add 170 μL/well of blocking solution and incubate 45 min (minimum) at room temperature.
# Preparation of bacterial suspension: Mix the two cultures tubes (40 mL) and perform a 1:10 dilution in LB (900 μl LB+100 μl culture. Measure optical density (OD) of the bacterial cultures. OD1 ˜5×10^8 cells/mL. Centrifuge LF82 culture for 20 min at 3500 rpm at room temperature. Re-suspend bacterial pellet in D-PBS and centrifuge again for 20 min at 3500 rpm. Re-suspend bacterial pellet in D-PBS to obtain a bacterial concentration of 2×10^9 bacteria/mL. Dilute 1/10 in D-PBS to obtain a final bacterial concentration of 2×10^8 bacteria/mL (=107 bacteria/50 μL). Perform 1/10 serial dilutions in LB of each bacterial suspension, plate 10 μL of dilutions on LB agar plates (final dilutions of 10^−7) and incubate overnight at 37° C. and count CFUs to determine the actual bacteria density in the assay.
# Bacterial binding assay: Add 147 μL 2× binding buffer to compound plate (containing 3 μL of compound). After blocking step is performed (at least 45 min), wash plates three times with 200 μL/well of D-PBS. With a 100 μL multichannel manual pipettor, add 50 µL/well of compound diluted in 2× binding buffer. With a 100 μL multichannel manual pipettor, add 50 μL/well of bacterial suspension. Agitate at slow speed for 1 min and incubate 40-75 min at room temperature. Wash 5 times with 150 μL/well of washing buffer and then once with D-PBS. Add 100 μL/well of 1× Bright-Glo Luciferase substrate. […]
row,Structure (SMILES),IC50 [nM]
1,"OC[C@H]1O[C@H](C#Cc2cc3cc(C#C[C@H]4O[C@H](CO)[C@@H](O)[C@H](O)[C@@H]4O)sc3s2)[C@@H](O)[C@@H](O)[C@@H]1O [Compound 123, (2R,3S,4R,5S,6R)-2-(hydroxymethyl)-6-[2-[5-[2-[(2R,3S,4R,5S,6R)-3,4,5-trihydroxy-6-(hydroxymethyl)tetrahydropyran-2-yl]ethynyl]thieno[2,3-b]thiophen-2-yl]ethynyl]tetrahydropyran-3,4,5-triol]",41
2,"OCc1cc(C#C[C@H]2O[C@H](CO)[C@@H](O)[C@H](O)[C@@H]2O)ccc1C#C[C@H]1O[C@H](CO)[C@@H](O)[C@H](O)[C@@H]1O [Compound 95, (2R,3S,4R,5S,6R)-2-(hydroxymethyl)-6-[2-[3-(hydroxymethyl)-4-[2-[(2R,3S,4R,5S,6R)-3,4,5-trihydroxy-6-(hydroxymethyl)tetrahydropyran-2-yl]ethynyl]phenyl]ethynyl]tetrahydropyran-3,4,5-triol]",38
3,OC[C@H]1O[C@H](C#Cc2ccc3c(c2)C2(SCCCS2)c2cc(C#C[C@H]4O[C@H](CO)[C@@H](O)[C@H](O)[C@@H]4O)ccc2-3)[C@@H](O)[C@@H](O)[C@@H]1O [Compound 191],0.36
4,"OC[C@H]1O[C@H](c2cc3ccc(C#C[C@H]4O[C@H](CO)[C@@H](O)[C@H](O)[C@@H]4O)cc3[nH]2)[C@@H](O)[C@@H](O)[C@@H]1O [Compound 146, (2R,3 S,4R,5S,6R)-2-(hydroxymethyl)-6-[2-[2-[(2R,3 S,4R,5S,6R)-3,4,5-trihydroxy-6-(hydroxymethyl)tetrahydropyran-2-yl]-1H-indol-6-yl]ethynyl]tetrahydropyran-3,4,5-triol]",165
5,"OCC(O)CC1(O)c2cc(C#C[C@H]3O[C@H](CO)[C@@H](O)[C@H](O)[C@@H]3O)ccc2-c2ccc(C#C[C@H]3O[C@H](CO)[C@@H](O)[C@H](O)[C@@H]3O)cc21 (stereo partly drawn) [Compound 196, (2R,3S,4R,5S,6R)-2-[2-[9-(2,3-dihydroxypropyl)-9-hydroxy-7-[2-[(2R,3S,4R,5S,6R)-3,4,5-trihydroxy-6-(hydroxymethyl)tetrahydropyran-2-yl]ethynyl]fluoren-2-yl]ethynyl]-6-(hydroxymethyl)tetrahydropyran-3,4,5-triol]",28
6,"O=C(c1c(C#C[C@H]2O[C@H](CO)[C@@H](O)[C@H](O)[C@@H]2O)ccc2c1C1(CCNCC1)c1cc(C#C[C@H]3O[C@H](CO)[C@@H](O)[C@H](O)[C@@H]3O)ccc1-2)[C@@H]1CCCO1 [Compound 242, [2,7-bis[2-[(2R,3S,4R,5S,6R)-3,4,5-trihydroxy-6-(hydroxymethyl)tetrahydropyran-2-yl]ethynyl]spiro[fluorene-9,4piperidine]-1yl]-[(2S)-tetrahydrofuran-2-yl]methanone]",0.18
7,"CC(C)(C)C(=O)N1CCC2(CC1)c1cc(C#C[C@H]3O[C@H](CO)[C@@H](O)[C@H](O)[C@@H]3O)ccc1-c1ccc(C#C[C@H]3O[C@H](CO)[C@@H](O)[C@H](O)[C@@H]3O)cc12 [Compound 228, 1-[2,7-bis[2-[(2R,3S,4R,5S,6R)-3,4,5-trihydroxy-6-(hydroxymethyl)tetrahydropyran-2-yl]ethynyl]spiro[fluorene-9,4piperidine]-1yl]-2,2-dimethyl-propan-l-one]",0.44
8,"OC[C@H]1O[C@H](C#Cc2ccc(C#C[C@H]3O[C@H](CO)[C@@H](O)[C@H](O)[C@@H]3O)c3cnccc23)[C@@H](O)[C@@H](O)[C@@H]1O [Compound 130, (2R,3S,4R,5S,6R)-2-(hydroxymethyl)-6-[2-[8-[-2-[(2R,3S,4R,5S,6R)-3,4,5-trihydroxy-6-(hydroxymethyl)tetrahydropyran-2-yl]ethynyl]-5-isoquinolyl]ethynyl]tetrahydropyran-3,4,5-triol]",67
9,"CN(C)CC(=O)c1c(C#C[C@H]2O[C@H](CO)[C@@H](O)[C@H](O)[C@@H]2O)ccc2c1C1(CCNCC1)c1cc(C#C[C@H]3O[C@H](CO)[C@@H](O)[C@H](O)[C@@H]3O)ccc1-2 [Compound 222, 1-[2,7-bis[2-[(2R,3S,4R,5S,6R)-3,4,5-trihydroxy-6-(hydroxymethyl)tetrahydropyran-2-yl]ethynyl]spiro[fluorene-9,4piperidine]-1yl]-2-(dimethylamino)ethanone]",0.08
10,"CC(=O)OCC1(COC(C)=O)c2cc(C#C[C@H]3O[C@H](CO)[C@@H](O)[C@H](O)[C@@H]3O)ccc2-c2ccc(C#C[C@H]3O[C@H](CO)[C@@H](O)[C@H](O)[C@@H]3O)cc21 [Compound 211, [9-(acetoxymethyl)-2,7-bis[2-[(2R,3S,4R,5S,6R)-3,4,5-trihydroxy-6-(hydroxymethyl)tetrahydropyran-2-yl]ethynyl]fluoren-9-yl]methyl acetate]",2.2
11,"O=C(c1c(C#C[C@H]2O[C@H](CO)[C@@H](O)[C@H](O)[C@@H]2O)ccc2c1C1(CCNCC1)c1cc(C#C[C@H]3O[C@H](CO)[C@@H](O)[C@H](O)[C@@H]3O)ccc1-2)C1CC1(F)F (stereo partly drawn) [Compound 235, [2,7-bis[2-[(2R,3S,4R,5S,6R)-3,4,5-trihydroxy-6-(hydroxymethyl)tetrahydropyran-2-yl]ethynyl]spiro[fluorene-9,4piperidine]-1yl]-(2,2-difluorocyclopropyl)methanone]",0.03
12,NC1CCC2(CC1)c1cc(C#C[C@H]3O[C@H](CO)[C@@H](O)[C@H](O)[C@@H]3O)ccc1-c1ccc(C#C[C@H]3O[C@H](CO)[C@@H](O)[C@H](O)[C@@H]3O)cc12 [Compound 205],0.39
13,OC[C@H]1O[C@H](C#Cc2cc3sc(C#C[C@H]4O[C@H](CO)[C@@H](O)[C@H](O)[C@@H]4O)cc3s2)[C@@H](O)[C@@H](O)[C@@H]1O [Compound 133],28
14,"CC(C)Oc1cc(C#C[C@H]2O[C@H](CO)[C@@H](O)[C@H](O)[C@@H]2O)ccc1C#C[C@H]1O[C@H](CO)[C@@H](O)[C@H](O)[C@@H]1O [Compound 83, (2R,3S,4R,5S,6R)-2-(hydroxymethyl)-6-[2-[3-isopropoxy-4-[2-[(2R,3S,4R,5S,6R)-3,4,5-trihydroxy-6-(hydroxymethyl)tetrahydropyran-2-yl]ethynyl]phenyl]ethynyl]tetrahydropyran-3,4,5-triol]",3.8
15,OC[C@H]1O[C@H](C#Cc2cnc(C#C[C@H]3O[C@H](CO)[C@@H](O)[C@H](O)[C@@H]3O)cn2)[C@@H](O)[C@@H](O)[C@@H]1O [Compound 135],580
16,"OC[C@H]1O[C@H](C#Cc2ccc3[nH]c4ccc(C#C[C@H]5O[C@H](CO)[C@@H](O)[C@H](O)[C@@H]5O)cc4c3c2)[C@@H](O)[C@@H](O)[C@@H]1O [Compound 108, (2R,3S,4R,5S,6R)-2-(hydroxymethyl)-6-[2-[6-[2-[(2R,3S,4R,5S,6R)-3,4,5-trihydroxy-6-(hydroxymethyl)tetrahydropyran-2-yl]ethynyl]-9H-carbazol-3-yl]ethynyl]tetrahydropyran-3,4,5-triol]",28
